Columns and labels:
[1] = target: human JAK3 (Homo sapiens (Human), UniProt P52333); test: JAK3 TR-FRET kinase assay; format: biochemical; conditions: JAK3 0.0125 nM
[2] = target: human JAK1 (Homo sapiens (Human), UniProt P23458); test: JAK1 TR-FRET kinase assay; format: biochemical; conditions: TR-FRET, JAK1 2.5 nM
[3] = target: TYK2 JH2 domain (Homo sapiens (Human), UniProt P29597); test: TYK2 JH2 NanoBRET assay; format: binding; conditions: Table 20, read-out: TYK2 IC50
In short: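 HEK293T cells transiently expressing NanoLuc-TYK2 JH2 fusion, incubated 2 h with compound and NanoBRET K10 tracer (0.5 µM final). Target engagement read as acceptor/donor BRET ratio after Nano-Glo substrate plus extracellular NanoLuc inhibitor.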

[4] = target: human JAK2 (Homo sapiens (Human), UniProt O60674); test: JAK2 TR-FRET kinase assay; format: biochemical; conditions: JAK2 0.025 nM
human JAK2, sequence (O60674 whole entry): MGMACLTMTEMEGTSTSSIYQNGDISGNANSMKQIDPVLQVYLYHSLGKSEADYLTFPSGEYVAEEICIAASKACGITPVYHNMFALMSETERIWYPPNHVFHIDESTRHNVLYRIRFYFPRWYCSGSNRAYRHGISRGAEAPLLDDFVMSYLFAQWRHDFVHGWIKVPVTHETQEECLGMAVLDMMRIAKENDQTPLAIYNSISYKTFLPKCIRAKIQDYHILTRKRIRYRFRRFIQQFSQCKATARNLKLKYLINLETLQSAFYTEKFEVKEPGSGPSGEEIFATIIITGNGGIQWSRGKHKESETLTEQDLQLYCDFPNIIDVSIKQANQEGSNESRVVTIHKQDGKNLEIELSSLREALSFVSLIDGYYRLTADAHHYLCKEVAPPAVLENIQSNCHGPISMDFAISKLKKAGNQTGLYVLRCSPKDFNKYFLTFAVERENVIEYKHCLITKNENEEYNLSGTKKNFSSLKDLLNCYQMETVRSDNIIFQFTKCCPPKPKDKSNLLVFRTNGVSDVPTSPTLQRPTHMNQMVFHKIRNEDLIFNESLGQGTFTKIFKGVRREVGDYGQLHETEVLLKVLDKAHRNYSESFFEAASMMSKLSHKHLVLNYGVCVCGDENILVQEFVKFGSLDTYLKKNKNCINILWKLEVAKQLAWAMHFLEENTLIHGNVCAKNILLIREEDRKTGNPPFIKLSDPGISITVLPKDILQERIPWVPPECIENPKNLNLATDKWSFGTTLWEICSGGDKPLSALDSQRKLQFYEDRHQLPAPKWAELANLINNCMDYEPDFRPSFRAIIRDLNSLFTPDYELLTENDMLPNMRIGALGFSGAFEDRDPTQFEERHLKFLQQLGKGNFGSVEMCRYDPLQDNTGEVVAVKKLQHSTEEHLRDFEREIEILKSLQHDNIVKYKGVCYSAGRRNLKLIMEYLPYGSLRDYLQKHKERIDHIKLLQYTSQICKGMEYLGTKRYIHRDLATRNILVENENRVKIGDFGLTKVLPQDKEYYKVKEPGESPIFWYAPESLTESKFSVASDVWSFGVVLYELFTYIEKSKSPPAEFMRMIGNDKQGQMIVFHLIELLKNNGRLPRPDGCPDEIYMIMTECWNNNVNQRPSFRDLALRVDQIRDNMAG

human JAK3, sequence (P52333 whole entry): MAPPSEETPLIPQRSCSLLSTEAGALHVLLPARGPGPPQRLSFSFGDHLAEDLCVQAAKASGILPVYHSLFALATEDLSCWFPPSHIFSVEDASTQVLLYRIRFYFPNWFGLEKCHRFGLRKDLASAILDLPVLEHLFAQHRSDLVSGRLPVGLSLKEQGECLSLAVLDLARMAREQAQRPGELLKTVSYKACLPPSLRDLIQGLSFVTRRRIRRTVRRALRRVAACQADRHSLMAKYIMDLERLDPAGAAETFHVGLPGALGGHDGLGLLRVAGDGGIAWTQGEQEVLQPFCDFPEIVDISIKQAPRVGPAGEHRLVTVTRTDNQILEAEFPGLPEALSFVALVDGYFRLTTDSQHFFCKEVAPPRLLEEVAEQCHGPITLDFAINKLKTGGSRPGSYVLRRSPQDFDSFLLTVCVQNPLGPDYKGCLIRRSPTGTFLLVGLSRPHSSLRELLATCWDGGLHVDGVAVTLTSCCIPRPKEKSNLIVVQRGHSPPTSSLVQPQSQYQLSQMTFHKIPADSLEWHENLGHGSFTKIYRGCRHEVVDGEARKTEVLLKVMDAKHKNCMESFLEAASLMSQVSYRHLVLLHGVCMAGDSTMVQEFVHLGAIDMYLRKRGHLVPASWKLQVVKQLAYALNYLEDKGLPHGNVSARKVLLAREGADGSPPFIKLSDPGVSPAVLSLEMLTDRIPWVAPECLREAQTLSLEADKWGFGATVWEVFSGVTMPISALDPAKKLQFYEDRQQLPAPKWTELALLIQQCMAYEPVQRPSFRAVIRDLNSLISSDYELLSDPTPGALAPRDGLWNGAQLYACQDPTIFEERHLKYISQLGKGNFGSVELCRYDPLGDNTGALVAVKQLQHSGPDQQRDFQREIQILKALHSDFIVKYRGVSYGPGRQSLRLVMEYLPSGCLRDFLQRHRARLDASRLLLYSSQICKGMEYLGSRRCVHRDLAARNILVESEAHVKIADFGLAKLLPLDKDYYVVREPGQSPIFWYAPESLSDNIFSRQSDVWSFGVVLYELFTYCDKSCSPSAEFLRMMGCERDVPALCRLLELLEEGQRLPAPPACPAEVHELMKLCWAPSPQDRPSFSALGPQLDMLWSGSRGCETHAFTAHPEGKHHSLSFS
TYK2 JH2 domain, sequence (P29597 589-875): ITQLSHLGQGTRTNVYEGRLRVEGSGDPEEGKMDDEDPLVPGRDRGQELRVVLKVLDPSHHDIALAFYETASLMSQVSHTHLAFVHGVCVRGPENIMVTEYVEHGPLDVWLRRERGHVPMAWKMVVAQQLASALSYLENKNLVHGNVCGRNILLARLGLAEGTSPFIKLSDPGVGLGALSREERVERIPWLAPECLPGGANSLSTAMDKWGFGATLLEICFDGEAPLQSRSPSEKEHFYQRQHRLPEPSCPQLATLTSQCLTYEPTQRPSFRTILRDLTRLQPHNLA
human JAK1, sequence (P23458 whole entry, the tested form may be a part): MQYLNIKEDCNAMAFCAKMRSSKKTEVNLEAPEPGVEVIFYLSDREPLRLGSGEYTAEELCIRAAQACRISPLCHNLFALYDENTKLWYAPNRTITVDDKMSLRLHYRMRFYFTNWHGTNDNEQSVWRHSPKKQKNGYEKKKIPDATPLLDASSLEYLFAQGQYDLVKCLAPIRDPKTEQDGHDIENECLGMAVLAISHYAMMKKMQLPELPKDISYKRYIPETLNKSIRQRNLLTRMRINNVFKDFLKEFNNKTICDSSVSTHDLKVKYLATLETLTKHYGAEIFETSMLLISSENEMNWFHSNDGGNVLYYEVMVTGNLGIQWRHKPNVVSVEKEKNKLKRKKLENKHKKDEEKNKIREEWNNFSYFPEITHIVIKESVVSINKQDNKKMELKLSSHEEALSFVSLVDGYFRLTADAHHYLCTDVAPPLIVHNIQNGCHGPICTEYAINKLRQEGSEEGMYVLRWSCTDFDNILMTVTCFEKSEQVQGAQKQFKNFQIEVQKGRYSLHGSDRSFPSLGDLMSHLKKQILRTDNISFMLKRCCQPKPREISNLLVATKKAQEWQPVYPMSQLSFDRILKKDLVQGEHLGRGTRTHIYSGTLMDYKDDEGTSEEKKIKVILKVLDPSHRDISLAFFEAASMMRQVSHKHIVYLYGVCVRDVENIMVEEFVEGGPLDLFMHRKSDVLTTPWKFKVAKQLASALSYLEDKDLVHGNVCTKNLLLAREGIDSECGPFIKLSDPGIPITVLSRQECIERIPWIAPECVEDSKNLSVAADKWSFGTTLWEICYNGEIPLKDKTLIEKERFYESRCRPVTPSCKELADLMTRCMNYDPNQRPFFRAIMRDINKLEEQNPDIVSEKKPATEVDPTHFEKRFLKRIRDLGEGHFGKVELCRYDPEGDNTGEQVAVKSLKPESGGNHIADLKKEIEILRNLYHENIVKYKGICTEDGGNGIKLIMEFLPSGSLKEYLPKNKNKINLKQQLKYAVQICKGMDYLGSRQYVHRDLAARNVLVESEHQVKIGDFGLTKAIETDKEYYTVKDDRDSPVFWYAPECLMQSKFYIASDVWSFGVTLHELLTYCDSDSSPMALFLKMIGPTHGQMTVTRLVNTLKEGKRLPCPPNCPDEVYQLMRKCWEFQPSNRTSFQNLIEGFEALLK

Row | SMILES | IC50 [1] [nM] | IC50 [2] [nM] | IC50 [3] [nM] | IC50 [4] [nM]
1 | CCC(=O)c1cnc(Nc2cc(C)n([C@H]3C[C@@H](OC)C3)n2)cc1Nc1cccc(-c2ncn(C)n2)c1OC [Compound 21EE] | ≥ 500 | ≥ 500 | < 5 | ≥ 500
2 | CCC(=O)c1cnc(Nc2ccn(-c3ccccn3)n2)cc1Nc1cccc(-c2ncn(C)n2)c1OC [Compound 21E] | ≥ 500 | ≥ 500 | < 5 | ≥ 500
3 | CCO[C@H]1C[C@@H](n2nc(Nc3cc(Nc4cccc(-c5ncn(C)n5)c4OC)c(C(=O)CC)cn3)cc2C)C1 [Compound 21FF] | ≥ 500 | ≥ 500 | < 5 | ≥ 500
4 | CCC(=O)c1cnc(Nc2csc(CN3CCCC3)n2)cc1Nc1cccc(-c2ncn(C)n2)c1OC [Compound 21F] | ≥ 500 | ≥ 500 | 5 to 50 | ≥ 500
5 | CCC(=O)c1cnc(Nc2ccn(C3CC(F)(F)C3)n2)cc1Nc1cccc(-c2ncn(C)n2)c1OC [Compound 21GG] | ≥ 500 | ≥ 500 | 5 to 50 | ≥ 500
6 | CCC(=O)c1cnc(Nc2cc(CN3CCCC3)n(C)n2)cc1Nc1cccc(-c2ncn(C)n2)c1OC [Compound 21G] | 50 to 500 | ≥ 500 | < 5 | 50 to 500
7 | CCC(=O)c1cnc(Nc2nc(CN3CCCC3)ns2)cc1Nc1cccc(-c2ncn(C)n2)c1OC [Compound 21H] | ≥ 500 | ≥ 500 | 50 to 500 | ≥ 500
8 | CCC(=O)c1cnc(Nc2cc(CN3CCCC3)sn2)cc1Nc1cccc(-c2ncn(C)n2)c1OC [Compound 21I] | 50 to 500 | ≥ 500 | < 5 | 50 to 500
9 | CCC(=O)c1cnc(Nc2ccn([C@H]3C[C@@H](O)C3)n2)cc1Nc1cccc(-c2ncn(C)n2)c1OC [Compound 21J] | ≥ 500 | ≥ 500 | 5 to 50 | ≥ 500
10 | CCC(=O)c1cnc(Nc2ccn([C@H]3C[C@H](OC)C3)n2)cc1Nc1cccc(-c2ncn(C)n2)c1OC [Compound 21L] | ≥ 500 | ≥ 500 | 5 to 50 | ≥ 500
11 | CCC(=O)c1cnc(Nc2ccn(CCC#N)n2)cc1Nc1cccc(-c2ncn(C)n2)c1OC [Compound 21M] | 50 to 500 | ≥ 500 | 5 to 50 | ≥ 500
12 | CCC(=O)c1cnc(Nc2ccn([C@H]3C[C@@H](C#N)C3)n2)cc1Nc1cccc(-c2ncn(C)n2)c1OC [Compound 21N] | ≥ 500 | ≥ 500 | 5 to 50 | ≥ 500
13 | CCC(=O)c1cnc(Nc2cn([C@H]3C[C@@H](O)C3)cn2)cc1Nc1cccc(-c2ncn(C)n2)c1OC [Compound 21P] | ≥ 500 | ≥ 500 | 5 to 50 | ≥ 500
14 | CCC(=O)c1cnc(Nc2ccn(CC3(C)COC3)n2)cc1Nc1cccc(-c2ncn(C)n2)c1OC [Compound 21Q] | 50 to 500 | ≥ 500 | 50 to 500 | ≥ 500
15 | CCC(=O)c1cnc(Nc2ccn(CC3COC3)n2)cc1Nc1cccc(-c2ncn(C)n2)c1OC [Compound 21R] | 50 to 500 | ≥ 500 | 5 to 50 | ≥ 500
16 | CCC(=O)c1cnc(Nc2ccn(CC3CCCO3)n2)cc1Nc1cccc(-c2ncn(C)n2)c1OC (stereo not shown) [Compound 21S] | ≥ 500 | ≥ 500 | 5 to 50 | ≥ 500
17 | CCC(=O)c1cnc(Nc2ccn(CC3CCOC3)n2)cc1Nc1cccc(-c2ncn(C)n2)c1OC (stereo not shown) [Compound 21T] | ≥ 500 | ≥ 500 | 5 to 50 | ≥ 500
18 | CCC(=O)c1cnc(Nc2ccn(CC3(CO)COC3)n2)cc1Nc1cccc(-c2ncn(C)n2)c1OC [Compound 21U] | 50 to 500 | ≥ 500 | 50 to 500 | 50 to 500
19 | CCC(=O)c1cnc(Nc2ccn(CC3CCO3)n2)cc1Nc1cccc(-c2ncn(C)n2)c1OC (stereo not shown) [Compound 21V] | ≥ 500 | ≥ 500 | 50 to 500 | ≥ 500
20 | CCC(=O)c1cnc(Nc2ccn(C[C@H]3C[C@@H](O)C3)n2)cc1Nc1cccc(-c2ncn(C)n2)c1OC [Compound 21W] | ≥ 500 | ≥ 500 | 5 to 50 | ≥ 500
21 | CCC(=O)c1cnc(Nc2ccn(CC3CN(C)C3)n2)cc1Nc1cccc(-c2ncn(C)n2)c1OC [Compound 21X] | ≥ 500 | ≥ 500 | 50 to 500 | ≥ 500
22 | CCC(=O)c1cnc(Nc2cc(OC)n(CCOC)n2)cc1Nc1cccc(-c2ncn(C)n2)c1OC [Compound 21Y] | 50 to 500 | ≥ 500 | 5 to 50 | 50 to 500

Row | SMILES | IC50 [1] [nM] | IC50 [2] [nM] | IC50 [3] [nM] | IC50 [4] [nM]
23 | CCC(=O)c1cnc(Nc2cc(C)n(CCOC)n2)cc1Nc1cccc(-c2ncn(C)n2)c1OC [Compound 21Z] | 50 to 500 | ≥ 500 | 5 to 50 | ≥ 500
24 | CCC(=O)c1cnc(NC(=O)C2CC2c2cnn(C)c2)cc1Nc1cccc(-c2ncn(C)n2)c1OC (stereo not shown) [Compound 22A, N-(4-((2-methoxy-3-(1-methyl-1H-1,2,4-tliazol-3-yl)phenyl)amino)-5-propionylpyridin-2-yl)-2-(1-methyl-1H-pyrazol-4-yl)cyclopropane-1-carboxamide] | ≥ 500 | ≥ 500 | 5 to 50 | ≥ 500
25 | CCC(=O)c1cnc(NC(=O)C2CC2c2ccccn2)cc1Nc1cccc(-c2ncn(C)n2)c1OC (stereo not shown) [Compound 22B] | ≥ 500 | ≥ 500 | 50 to 500 | ≥ 500
26 | CCC(=O)c1cnc(NC(=O)[C@@H]2C[C@H]2C(=O)O)cc1Nc1cccc(-c2ncn(C)n2)c1OC [Compound 22C] | ≥ 500 | ≥ 500 | ≥ 500 | ≥ 500
27 | CCC(=O)c1cnc(NC(=O)[C@@H]2C[C@H]2CN(C)C)cc1Nc1cccc(-c2ncn(C)n2)c1OC [Compound 22D] | ≥ 500 | ≥ 500 | 5 to 50 | ≥ 500
28 | CCC(=O)c1cnc(NC(=O)[C@@H]2C[C@H]2C(N)=O)cc1Nc1cccc(-c2ncn(C)n2)c1OC [Compound 22E] | ≥ 500 | ≥ 500 | ≥ 500 | ≥ 500
29 | CCC(=O)c1cnc(NC(=O)[C@@H]2C[C@@H]2C(N)=O)cc1Nc1cccc(-c2ncn(C)n2)c1OC [Compound 22G] | ≥ 500 | ≥ 500 | ≥ 500 | ≥ 500
30 | CCC(=O)c1cnc(NC(=O)[C@@H]2C[C@H]2NC(=O)OC(C)(C)C)cc1Nc1cccc(-c2ncn(C)n2)c1OC [Compound 22H] | ≥ 500 | ≥ 500 | ≥ 500 | ≥ 500
31 | CCC(=O)c1cnc(NC(=O)[C@@H]2C[C@H]2NC(C)=O)cc1Nc1cccc(-c2ncn(C)n2)c1OC [Compound 22I] | ≥ 500 | ≥ 500 | ≥ 500 | ≥ 500
32 | CCC(=O)c1cnc(NC(=O)[C@@H]2C[C@@H]2NC(=O)OC(C)(C)C)cc1Nc1cccc(-c2ncn(C)n2)c1OC [Compound 22J] | ≥ 500 | ≥ 500 | ≥ 500 | ≥ 500
33 | CCC(=O)c1cnc(NC(=O)[C@@H]2C[C@@H]2NC(C)=O)cc1Nc1cccc(-c2ncn(C)n2)c1OC [Compound 22K] | ≥ 500 | ≥ 500 | ≥ 500 | ≥ 500
34 | CCC(=O)c1cnc(NC(=O)[C@@H]2C[C@H]2CC#N)cc1Nc1cccc(-c2ncn(C)n2)c1OC [Compound 22L] | ≥ 500 | ≥ 500 | ≥ 500 | ≥ 500
35 | CCC(=O)c1cnc(NC(=O)C2CC2c2ccn(C)n2)cc1Nc1cccc(-c2ncn(C)n2)c1OC (stereo not shown) [Compound 22M] | ≥ 500 | ≥ 500 | 50 to 500 | ≥ 500
36 | CCC(=O)c1cnc(NC(=O)[C@@H]2C[C@H]2CS(C)(=O)=O)cc1Nc1cccc(-c2ncn(C)n2)c1OC [Compound 22N] | ≥ 500 | ≥ 500 | 50 to 500 | ≥ 500
37 | CCC(=O)c1cnc(NC(=O)CC2CCN(C)CC2)cc1Nc1cccc(-c2ncn(C)n2)c1OC [Compound 23A, N-(4-((2-methoxy-3-(1-methyl-1H-1,2,4-triazol-3-yl)phenyl)amino)-5-propionylpyridin-2-yl)-2-(1-methylpiperidin-4-yl)acetamide] | ≥ 500 | ≥ 500 | 5 to 50 | ≥ 500
38 | CCC(=O)c1cnc(NC(=O)CC2CC2)cc1Nc1cccc(-c2ncn(C)n2)c1OC [Compound 23B] | ≥ 500 | ≥ 500 | 5 to 50 | ≥ 500
39 | CCC(=O)c1cnc(NC(=O)CC2(O)CC2)cc1Nc1cccc(-c2ncn(C)n2)c1OC [Compound 23C] | ≥ 500 | ≥ 500 | 50 to 500 | ≥ 500
40 | CCC(=O)c1cnc(NC(=O)CCN2CCCC2)cc1Nc1cccc(-c2ncn(C)n2)c1OC [Compound 23D] | ≥ 500 | ≥ 500 | 50 to 500 | ≥ 500
41 | CCC(=O)c1cnc(NC(=O)CCCN2CCCC2)cc1Nc1cccc(-c2ncn(C)n2)c1OC [Compound 23E] | ≥ 500 | ≥ 500 | 50 to 500 | ≥ 500
42 | CCC(=O)c1cnc(NC(=O)CCc2cnn(C)c2)cc1Nc1cccc(-c2ncn(C)n2)c1OC [Compound 23F] | ≥ 500 | ≥ 500 | 50 to 500 | ≥ 500
43 | CCC(=O)c1cnc(NC(=O)CC2CN(C)C2)cc1Nc1cccc(-c2ncn(C)n2)c1OC [Compound 23G] | ≥ 500 | ≥ 500 | ≥ 500 | ≥ 500

Reference: patent US20230295119A1, “SUBSTITUTED PYRIDINES FOR THE TREATMENT OF INFLAMMATORY DISEASES” (GOSSAMER BIO SERVICES, INC., priority 2020, published 2023)
